Experimental findings from patent US20110014148A1, “Cationic Surfactants Having Improved Properties” (COGNIS IP MANAGEMENT GMBH, priority 2008, published 2011) are described below.

Series [1] is described as follows: Biodegradability in accordance with OECD 301 B. As for the experimental part: (§1) For the cationic surfactant type 1 from Table 2, the biodegradability and toxicity was determined in accordance with OECD 301 B against algae.
The next series concerns algae. It counts as cell-based. As for the experimental part: as §1

As for `CCCCCCCCCCCCCCCCCCCCCC[N+](C)(C)C.[Cl-]` [behentrimonium chloride], the Biodegradability result in series [1] is reported as “not degraded”. The Toxicity towards algae in the series with algae is less than 1 mg/L.
